Target: S. pneumoniae Topoisomerase IV ATPase (ParE) (Streptococcus pneumoniae serotype 4, UniProt Q59961)
Test: S. pneumoniae Topoisomerase IV ATPase inhibition
Assay type: biochemical
Settings: values marked * are an average of two or more data points, read-out: % Inh (13 μM) of S. pneumoniae Topoisomerase IV ATPase
Method in brief: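 Malachite green/ammonium molybdate phosphate detection, A650. 1.25 nM ParE, 160 μM ATP, sheared salmon sperm DNA 5 μg/ml, 20 mM Tris pH 8.0, 8.0 mM MgCl2. Controls: 2% DMSO = 0%, 20 μM EDTA = 100% inhibition; IC50 over 10 concentrations.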

S. pneumoniae Topoisomerase IV ATPase (ParE), sequence (Q59961 whole entry): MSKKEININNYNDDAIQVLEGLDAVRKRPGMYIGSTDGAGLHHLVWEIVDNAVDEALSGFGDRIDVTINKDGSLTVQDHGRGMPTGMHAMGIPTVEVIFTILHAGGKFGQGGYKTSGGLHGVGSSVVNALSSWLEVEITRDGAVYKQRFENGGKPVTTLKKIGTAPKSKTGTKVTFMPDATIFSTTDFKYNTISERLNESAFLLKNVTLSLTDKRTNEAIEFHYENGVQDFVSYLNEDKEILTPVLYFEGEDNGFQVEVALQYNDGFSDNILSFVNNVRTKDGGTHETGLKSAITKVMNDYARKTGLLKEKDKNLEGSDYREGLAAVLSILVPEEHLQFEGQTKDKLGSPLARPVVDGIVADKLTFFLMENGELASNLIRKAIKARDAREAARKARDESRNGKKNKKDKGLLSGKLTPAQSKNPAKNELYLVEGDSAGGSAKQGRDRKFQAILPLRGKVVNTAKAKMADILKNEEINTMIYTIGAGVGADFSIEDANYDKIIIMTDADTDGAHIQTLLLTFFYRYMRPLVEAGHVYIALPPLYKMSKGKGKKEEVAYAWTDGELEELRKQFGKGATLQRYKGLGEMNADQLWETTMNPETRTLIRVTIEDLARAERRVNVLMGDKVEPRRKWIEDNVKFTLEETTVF

| Structure (SMILES) | inhibition at 13 µM |
| --- | --- |
| O=C(O)c1cncc(-c2cnc(Nc3ccc4c(c3)OCO4)nc2-n2ccc(C(F)(F)F)n2)c1 [Example 670, 5-{2-(1,3-benzodioxol-5-ylamino)-4-[3-(trifluoromethyl)-1H-pyrazol-1-yl]pyrimidin-5-yl}pyridine-3-carboxylic acid] | 100% |
| Cc1cc(C(F)(F)F)nn1-c1nc(Nc2ccc3c(c2)OCO3)ncc1-c1cncc(C(=O)O)c1 [Example 671, 5-{2-(1,3-benzodioxol-5-ylamino)-4-[5-methyl-3-(trifluoromethyl)-1H-pyrazol-1-yl]pyrimidin-5-yl}pyridine-3-carboxylic acid] | 92% |
| COc1cc(Nc2ncc(-c3cncc(C(=O)O)c3)c(-n3ccc(C(F)(F)F)n3)n2)cc(S(C)(=O)=O)c1 [Example 672, 5-(2-{[3-methoxy-5-(methylsulfonyl)phenyl]amino}-4-[3-(trifluoromethyl)-1H-pyrazol-1-yl]pyrimidin-5-yl)pyridine-3-carboxylic acid] | 100% |
| COc1cc(Nc2ncc(-c3cncc(C(=O)O)c3)c(-n3nc(C(F)(F)F)cc3C)n2)cc(S(C)(=O)=O)c1 [Example 673, 5-(2-{[3-methoxy-5-(methylsulfonyl)phenyl]amino}-4-[5-methyl-3-(trifluoromethyl)-1H-pyrazol-1-yl]pyrimidin-5-yl)pyridine-3-carboxylic acid] | 100% |
| COc1cc(Nc2ncc(-c3cnc(OC)c(C(=O)O)c3)c(-n3ccc(C(F)(F)F)n3)n2)cc(OC)c1 [Example 675, 5-{2-[(3,5-dimethoxyphenyl)amino]-4-[3-(trifluoromethyl)-1H-pyrazol-1-yl]pyrimidin-5-yl}-2-methoxypyridine-3-carboxylic acid] | 100% |
| COc1cc(Nc2ncc(-c3cnc(OC)c(C(=O)O)c3)c(-n3nc(C(F)(F)F)cc3C)n2)cc(OC)c1 [Example 677, 5-{2-[(3,5-dimethoxyphenyl)amino]-4-[5-methyl-3-(trifluoromethyl)-1H-pyrazol-1-yl]pyrimidin-5-yl}-2-methoxypyridine-3-carboxylic acid] | 100% |
| CNC(=O)c1cncc(-c2cnc(Nc3cc(OC)cc(OC)c3)nc2-n2ccc(C(F)(F)F)n2)c1 [Example 678, 5-{2-[(3,5-dimethoxyphenyl)amino]-4-[3-(trifluoromethyl)-1H-pyrazol-1-yl]pyrimidin-5-yl}-N-methylpyridine-3-carboxamide] | 100% |
| CONC(=O)c1cncc(-c2cnc(Nc3cc(OC)cc(OC)c3)nc2-n2ccc(C(F)(F)F)n2)c1 [Example 680, 5-{2-[(3,5-dimethoxyphenyl)amino]-4-[3-(trifluoromethyl)-1H-pyrazol-1-yl]pyrimidin-5-yl}-N-methoxypyridine-3-carboxamide] | 100% |
| CONC(=O)c1cncc(-c2cnc(Nc3cc(OC)cc(OC)c3)nc2-n2nc(C(F)(F)F)cc2C)c1 [Example 681, 5-{2-[(3,5-dimethoxyphenyl)amino]-4-[5-methyl-3-(trifluoromethyl)-1H-pyrazol-1-yl]pyrimidin-5-yl}-N-methoxypyridine-3-carboxamide] | 100% |
| COc1cc(Nc2ncc(-c3cncc(C(=O)NCCO)c3)c(-n3ccc(C(F)(F)F)n3)n2)cc(OC)c1 [Example 682, 5-{2-[(3,5-dimethoxyphenyl)amino]-4-[3-(trifluoromethyl)-1H-pyrazol-1-yl]pyrimidin-5-yl}-N-(2-hydroxyethyl)pyridine-3-carboxamide] | 100% |
| COc1cc(Nc2ncc(-c3cncc(C(=O)NCCO)c3)c(-n3nc(C(F)(F)F)cc3C)n2)cc(OC)c1 [Example 683, 5-{2-[(3,5-dimethoxyphenyl)amino]-4-[5-methyl-3-(trifluoromethyl)-1H-pyrazol-1-yl]pyrimidin-5-yl}-N-(2-hydroxyethyl)pyridine-3-carboxamide] | 100% |

— patent US20100137313A1 (ASTRAZENECA AB, priority 2008, published 2010)
